US7855292B2, “Sulfonamide compounds” (Janssen Pharmaceutica NV, priority 2004, dated 2010)

Columns and labels:
CCK-1 receptor = biological target: T1, CCK-1 receptor (Homo sapiens, UniProt P32238); experiment: CCK1 binding assay ([125I]-BH-CCK-8S displacement, CHO-K1 membranes); conditions: membranes of CHO-K1 cells stably transfected with the CCK-1 receptor, 20 pM [125I]-BH-CCK-8S, 0.3 μM PD-134,308 present, 60 min at 21±3° C.; for Ki: read-out: CCK1 pKi (converted)
T1 construct: expressed in transfected cells; host or cells: CHO-K1
T1 sequence (P32238 1-428): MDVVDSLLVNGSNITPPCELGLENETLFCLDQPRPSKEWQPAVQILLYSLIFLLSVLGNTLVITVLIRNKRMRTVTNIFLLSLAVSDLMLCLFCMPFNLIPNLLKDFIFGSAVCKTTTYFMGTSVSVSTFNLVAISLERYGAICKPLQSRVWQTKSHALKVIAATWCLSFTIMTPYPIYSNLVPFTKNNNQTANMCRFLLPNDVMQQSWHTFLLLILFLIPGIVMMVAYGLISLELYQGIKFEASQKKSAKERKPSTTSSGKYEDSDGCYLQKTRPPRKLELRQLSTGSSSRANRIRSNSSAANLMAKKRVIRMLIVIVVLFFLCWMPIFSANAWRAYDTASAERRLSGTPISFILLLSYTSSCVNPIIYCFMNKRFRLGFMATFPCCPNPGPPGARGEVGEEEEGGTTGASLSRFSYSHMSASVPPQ
Summary of the method: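 Membranes from CHO-K1 cells stably expressing CCK-1 incubated 1 h at 21±3° C with 20 pM [125I]-BH-CCK-8S in HEPES buffer pH 7.2 containing 0.3 μM PD-134,308 to block CCK-2. Bound radioactivity read by gamma counting after filtration. pKi derived via Cheng-Prusoff, with specific binding defined using 2-NAP.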

CCK2 receptor = biological target: T2, CCK2 receptor (Homo sapiens, UniProt P32239); experiment: CCK2 binding assay ([125I]-BH-CCK-8S displacement, HEKZFP membranes); conditions: membranes of doxycycline-induced HEKZFP cells, 20 pM [125I]-BH-CCK-8S, 60 min at 21±3° C.; for Ki: read-out: CCK2 pKi (converted)
T2 construct: analyzed for ZFP expression as well as CCK2R induction upon addition of doxycycline to the culture medium; endogenous in cells
T2 sequence (P32239 1-447): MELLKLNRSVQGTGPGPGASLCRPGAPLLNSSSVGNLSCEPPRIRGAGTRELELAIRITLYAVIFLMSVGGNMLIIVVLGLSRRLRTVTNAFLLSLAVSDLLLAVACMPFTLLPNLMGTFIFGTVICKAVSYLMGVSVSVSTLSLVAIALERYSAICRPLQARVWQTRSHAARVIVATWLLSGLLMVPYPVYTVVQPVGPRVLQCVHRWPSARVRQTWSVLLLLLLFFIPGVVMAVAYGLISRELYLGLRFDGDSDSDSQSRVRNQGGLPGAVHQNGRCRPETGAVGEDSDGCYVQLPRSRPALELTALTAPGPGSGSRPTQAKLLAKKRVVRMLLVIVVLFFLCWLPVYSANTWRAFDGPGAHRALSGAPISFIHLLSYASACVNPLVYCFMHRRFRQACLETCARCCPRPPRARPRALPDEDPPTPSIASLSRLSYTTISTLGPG

Structure (SMILES) | Ki (CCK-1 receptor) [µM] | Ki (CCK2 receptor) [µM] | CCK1 pKi (CCK-1 receptor) | CCK2 pKi (CCK2 receptor)
COC(=O)[C@H](Cc1ccc(Cl)c(Cl)c1)NC(=O)c1ccc(I)cc1NS(=O)(=O)c1cccc2nsnc12 [Example 154, (S)-2-[2-(Benzo[1,2,5]thiadiazole-4-sulfonylamino)-4-iodo-benzoylamino]-3-(3,4-dichloro-phenyl)-propionic acid methyl ester] | 0.158 | 0.251 | – | –
O=C(N[C@@H](Cc1ccc(Cl)c(Br)c1)C(=O)O)c1ccc(Br)cc1NS(=O)(=O)c1cccc2nccnc12 [Example 155, (S)-3-(3-Bromo-4-chloro-phenyl)-2-[4-bromo-2-(quinoxaline-5-sulfonylamino)-benzoylamino]-propionic acid] | – | – | 7.0 | 8.0
O=C(N[C@@H](Cc1ccc(Cl)c(Br)c1)C(=O)O)c1ccc(Br)cc1NS(=O)(=O)c1cccc2nsnc12 [Example 161, (S)-2-[2-(Benzo[1,2,5]thiadiazole-4-sulfonylamino)-4-bromo-benzoylamino]-3-(3-bromo-4-chloro-phenyl)-propionic acid] | – | – | 6.9 | 7.9
O=C(N[C@@H](Cc1ccc(F)c(Br)c1)C(=O)O)c1ccc(Br)cc1NS(=O)(=O)c1cccc2nsnc12 [Example 162, (S)-2-[2-(Benzo[1,2,5]thiadiazole-4-sulfonylamino)-4-bromo-benzoylamino]-3-(3-bromo-4-fluoro-phenyl)-propionic acid] | – | – | 6.6 | 8.2
CCOC(=O)[C@H](Cc1ccc(F)c(Br)c1)NC(=O)c1cc(Cl)c(Cl)cc1NS(=O)(=O)c1cccc2nsnc12 [Example 163, (S)-2-[2-(Benzo[1,2,5]thiadiazole-4-sulfonylamino)-4,5-dichloro-benzoylamino]-3-(3-bromo-4-fluoro-phenyl)-propionic acid ethyl ester] | 0.126 | 0.398 | – | –

More lines, now with the values ahead:

Ki (CCK-1 receptor) [µM] | Ki (CCK2 receptor) [µM] | CCK1 pKi (CCK-1 receptor) | CCK2 pKi (CCK2 receptor) | Structure (SMILES)
0.794 | 0.126 | – | – | COC(=O)[C@H](Cc1ccc(F)c(Br)c1)NC(=O)c1ccc(Br)cc1NS(=O)(=O)c1cccc2nccnc12 [Example 151, (S)-3-(3-Bromo-4-fluoro-phenyl)-2-[4-bromo-2-(quinoxaline-5-sulfonylamino)-benzoylamino]-propionic acid methyl ester]
1 | 0.158 | – | – | COC(=O)[C@H](Cc1ccc(F)c(Br)c1)NC(=O)c1ccc(Cl)cc1NS(=O)(=O)c1cccc2nccnc12 [Example 152, (S)-3-(3-Bromo-4-fluoro-phenyl)-2-[4-chloro-2-(quinoxaline-5-sulfonylamino)-benzoylamino]-propionic acid methyl ester]
– | – | 6.7 | 6.6 | COC(=O)[C@H](Cc1ccc(F)c(Br)c1)NC(=O)c1cc(Cl)c(Cl)cc1NS(=O)(=O)c1cccc2nccnc12 [Example 153, (S)-3-(3-Bromo-4-fluoro-phenyl)-2-[4,5-dichloro-2-(quinoxaline-5-sulfonylamino)-benzoylamino]-propionic acid methyl ester]
– | – | 6.6 | 8.0 | O=C(N[C@@H](Cc1ccc(F)c(Br)c1)C(=O)O)c1ccc(Cl)cc1NS(=O)(=O)c1cccc2nsnc12 [Example 156, (S)-2-[2-(Benzo[1,2,5]thiadiazole-4-sulfonylamino)-4-chloro-benzoylamino]-3-(3-bromo-4-fluoro-phenyl)-propionic acid]
– | – | 6.5 | 8.3 | O=C(N[C@@H](Cc1ccc(F)c(Br)c1)C(=O)O)c1ccc(Br)cc1NS(=O)(=O)c1cccc2nccnc12 [Example 158, (S)-3-(3-Bromo-4-fluoro-phenyl)-2-[4-bromo-2-(quinoxaline-5-sulfonylamino)-benzoylamino]-propionic acid]
– | – | 6.4 | 8.0 | O=C(N[C@@H](Cc1ccc(F)c(Br)c1)C(=O)O)c1ccc(Cl)cc1NS(=O)(=O)c1cccc2nccnc12 [Example 159, (S)-3-(3-Bromo-4-fluoro-phenyl)-2-[4-chloro-2-(quinoxaline-5-sulfonylamino)-benzoylamino]-propionic acid]
– | – | 6.8 | 8.2 | O=C(N[C@@H](Cc1ccc(F)c(Br)c1)C(=O)O)c1cc(Cl)c(Cl)cc1NS(=O)(=O)c1cccc2nccnc12 [Example 160, (S)-3-(3-Bromo-4-fluoro-phenyl)-2-[4,5-dichloro-2-(quinoxaline-5-sulfonylamino)-benzoylamino]-propionic acid]
